Tested on: BE(2)-c experimental metastases
Assay: BE(2)-c metastatic tumor model
Format: in vivo, NOD/SCID mice
Experimental: 1×10^6 BE(2)-c cells were injected into lateral tail veins of NOD/SCID mice to generate ‘experimental’ metastases. […] The treatment was continued until death or end point.
In the metastatic model, the animals' organs (liver, kidney, adrenal, and femur) were removed after the death/sacrifice of animals, and were fixed in 10% formalin and paraffin-embedded. These paraffin-embedded sections were then stained with hematoxylin and eosin and microscopically examined.

## CC[C@@]1(O)C(=O)OCc2c1cc1n(c2=O)Cc2cc3c(CN(C)C)c(O)ccc3nc2-1 [topotecan]
P<0.05
  survival span, TP versus PZ treated group: higher
At time of death or end point
  histology of organs: tumors in liver and kidney: macroscopically detectable tumors in liver and kidney
Daily oral gavage from 14 days after i.v. cell injection, TP 1.0 mg/Kg, TP+PZ plus 150 mg/Kg pazopanib
  mean survival span: 52.4 days

— US8709420B2 (GlaxoSmithKline Intellectual Property Limited, priority 2010, dated 2014)
